{"source": "patent US7645459B2", "about": "“Dosage forms of bisphosphonates” (The Procter & Gamble Company, priority 2004, dated 2010)", "origin": "cited, not measured here", "details": "administration within 30 minutes of a meal", "data": [{"smiles": "O=P(O)(O)C(O)(Cc1cccnc1)P(=O)(O)O", "note": "[risedronate, 1-hydroxy-2-(3-pyridinyl)-ethylidene-1,1-bisphosphonic acid]", "values": [{"measurement": "reduction of the amount absorbed compared to administration in the fasting state", "result": 50, "unit": "%"}]}]}
